The source of these data is PubChem BioAssay AID977605 (Broad Institute, 2014).

Each structure is given as a SMILES string. Activity calls are given as the source filed them.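 How the source made its calls: active means fitted curve reaches 40% activation below the top valid tested dose, in every test run; inconclusive means test runs disagree on the call; inactive means the rest, including effects opposite to the expected direction.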

A short description of one assay: E-selectin inducers in HUVECs, dose response, imaging, HUVEC, cherry-picked samples (AID 977605).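 Further: signal is the share of imaged cells scored positive for E-selectin.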 The conditions noted are these: HUVEC E-selectin immunostaining, at 18 µM (top of the series), percent of TNF-alpha response over vehicle.
Turning to `C[C@@H]1CN([C@H](C)CO)C(=O)Cc2cc(NC(=O)Cc3ccccc3)ccc2O[C@H]1CN(C)C(=O)Nc1cccc2ccccc12`, the activation is 0.676% (inactive).

The assay is the same for the next values; noted with them: HUVEC E-selectin immunostaining, at 19.5 µM (top of the series), percent of TNF-alpha response over vehicle.
As for `COc1ccc(NC(=O)N(C)C[C@@H]2Oc3ccc(NC(=O)c4ccncc4)cc3CC(=O)N([C@H](C)CO)C[C@@H]2C)cc1`, the activation was -0.135% (inactive). Still for that read-out and setting: for `Cc1noc(C)c1S(=O)(=O)N(C)C[C@H]1Oc2ccc(NC(=O)C3CC3)cc2CC(=O)N([C@@H](C)CO)C[C@@H]1C` the value was 32.2% (inactive). Regarding `COc1ccc(S(=O)(=O)N(C)C[C@@H]2Oc3ccc(NS(=O)(=O)c4c(C)noc4C)cc3C(=O)N([C@@H](C)CO)C[C@H]2C)cc1`, the activation was -0.096% (inactive).

Regarding `O=C(CCC(=O)N1CCOCC1)Nc1ccc(Cl)c(Cl)c1`, the activation was 0.295% (inactive). Regarding `COc1ccccc1OCC(=O)Nc1ccc(S(=O)(=O)N2CCN(C)CC2)cc1`, the activation is -0.127% (inactive).

Turning to `COc1ccc(S(=O)(=O)N(C)C[C@H]2Oc3ccc(NC(=O)Nc4c(C)noc4C)cc3C(=O)N([C@H](C)CO)C[C@H]2C)cc1`, the activation is 0.58% (inactive).

As for `C[C@H](CO)N1C[C@H](C)[C@@H](CN(C)C(=O)NC2CCCCC2)Oc2ccc(NS(=O)(=O)c3ccccc3)cc2C1=O`, the activation was -0.099% (inactive).

Consider `C[C@H](CO)N1C[C@H](C)[C@@H](CN(C)Cc2ccc(C(F)(F)F)cc2)Oc2ccc(N(C)C)cc2CC1=O`, for which the activation was 0.906% (inactive). As for `COc1ccccc1CN1CC(C(=O)N(C)Cc2[nH]c3ccccc3c2C)CCC1=O` (configuration not stated), the activation was 0.071% (inactive). Take `Cc1noc(C)c1S(=O)(=O)Nc1ccc2c(c1)C(=O)N([C@H](C)CO)C[C@@H](C)[C@H](CN(C)Cc1ccc3c(c1)OCO3)O2`: the activation is -0.134% (inactive). Same read-out and setting: for `CO[C@H]1CN(C)C(=O)c2cc(NC(=O)Nc3ccc(Cl)cc3)ccc2OC[C@H](C)NC[C@H]1C` the value was 0.158% (inactive). For `C[C@H](CO)N1C[C@H](C)[C@H](CN(C)C(=O)Nc2ccccc2)Oc2ccc(NS(C)(=O)=O)cc2C1=O`, the activation is -0.163% (inactive). For the molecule `CCOC(=O)c1sc(NC(=O)CN2C(=O)C3CC=CCC3C2=O)nc1C` (configuration not stated), the activation is 0.503% (inactive). With `CC(C)NC(=O)N(C)C[C@@H]1Oc2c(NC(=O)c3ccc(-c4nccs4)cc3)cccc2C(=O)N([C@@H](C)CO)C[C@H]1C`, the activation is 1.61% (inactive). For `C[C@@H]1CN([C@H](C)CO)C(=O)c2cccc(NS(=O)(=O)c3cccs3)c2O[C@H]1CN(C)Cc1ccc(Cl)c(Cl)c1`, the activation was -0.024% (inactive). In the case of `C[C@H]1CN([C@@H](C)CO)C(=O)c2cccc(NC(=O)Nc3ccc(F)cc3)c2O[C@H]1CN(C)Cc1ccncc1`, the activation is 0.058% (inactive). For the molecule `C[C@@H]1CCCCO[C@@H](CN(C)S(C)(=O)=O)[C@@H](C)CN([C@H](C)CO)C(=O)c2cc(NC(=O)CCCN(C)C)ccc2O1`, the activation was -0.145% (inactive).

Turning to `O=C(CN(C(=O)c1csnn1)c1ccc2c(c1)OCCO2)NCc1ccc(F)cc1`, the activation was -0.09% (inactive).

`Cc1ccc(CNS(=O)(=O)c2ccc(C(F)(F)F)cc2)n1C`: the activation is -0.139% (inactive). As to `C[C@@H]1CN([C@@H](C)CO)C(=O)c2cc(NC(=O)Nc3ccc4c(c3)OCO4)ccc2O[C@H]1CN(C)C`, the activation is -0.091% (inactive). As for `CC(C)NC(=O)Nc1cccc2c1O[C@@H](CN(C)Cc1ccc(C(F)(F)F)cc1)[C@@H](C)CN([C@H](C)CO)C2=O`, the activation was 0.009% (inactive).

As to `O=C(c1ccco1)N1CCN(C(=O)C2CC2)CC1`, the activation is -0.098% (inactive). On to `COc1ccccc1CC(Cc1nc2ccccc2[nH]1)c1nc2ccccc2[nH]1` (configuration not stated), for which the activation was 0.165% (inactive). For the molecule `CN(Cc1ccsc1)C(=O)CCc1nnc(CCCc2ccccc2)o1`, the activation is 1.14% (inactive). Same read-out and setting: for `COc1ccccc1NS(=O)(=O)c1c(C)[nH]c(C)c1C(=O)N1CCCC1` the value was 13.9% (inactive). For `C[C@@H]1CN([C@H](C)CO)C(=O)c2cccc(NC(=O)CCCCCC(=O)Nc3ccccc3N)c2O[C@H]1CN(C)C`, the activation was 0.064% (inactive). Consider `COc1ccc(NC(=O)N(C)C[C@H]2Oc3c(NS(=O)(=O)c4cn(C)cn4)cccc3C(=O)N([C@@H](C)CO)C[C@@H]2C)cc1`, for which the activation was 0.542% (inactive). Same read-out and setting: for `C[C@H]1CN([C@@H](C)CO)C(=O)c2cccc(NC(=O)Nc3cccc4ccccc34)c2O[C@H]1CN(C)Cc1ccc(-c2ccccc2)cc1` the value was 0.067% (inactive); for `COc1ccc(NC(=O)Nc2ccc3c(c2)C(=O)N([C@@H](C)CO)C[C@H](C)[C@@H](CN(C)C)O3)cc1`, 1.42% (inactive); for `CCCC#Cc1ccc2c(c1)O[C@H](CN(C)C(C)=O)[C@H](C)CN([C@@H](C)CO)S2(=O)=O`, 0.607% (inactive). Still for that read-out and setting: the figure for `CCOC(=O)c1cccc(NC(=O)c2cc(C)nn2-c2ccccc2)c1` is 0.657% (inactive); for `Cc1noc(C)c1S(=O)(=O)Nc1ccc2c(c1)CC(=O)N([C@H](C)CO)C[C@H](C)[C@@H](CN(C)C(=O)Nc1cccc3ccccc13)O2` it is -0.095% (inactive); for `C[C@H]1CN([C@@H](C)CO)C(=O)c2cccc(NS(C)(=O)=O)c2O[C@@H]1CN(C)Cc1ccc(Oc2ccccc2)cc1` it is 0.027% (inactive).

Take `Cc1noc(C)c1NC(=O)Nc1ccc2c(c1)CC(=O)N([C@H](C)CO)C[C@@H](C)[C@H](CN(C)C(=O)Nc1ccc(F)cc1)O2`: the activation is -0.18% (inactive).

For the molecule `Cc1noc(C)c1NC(=O)Nc1cccc2c1O[C@H](CN(C)CC1CCCCC1)[C@H](C)CN([C@@H](C)CO)C2=O`, the activation was 0.049% (inactive). In the case of `CC(C)(C)S(=O)(=O)c1cnc(-c2cnccn2)nc1N`, the activation is -0.028% (inactive).

With `C[C@@H]1CN([C@@H](C)CO)C(=O)Cc2cc(NC(=O)Nc3ccc4c(c3)OCO4)ccc2O[C@H]1CN(C)C`, the activation is -0.168% (inactive). Same read-out and setting: the figure for `CO[C@@H]1CN(C)C(=O)c2cc(NS(C)(=O)=O)ccc2OC[C@@H](C)N(C(=O)c2ccc3c(c2)OCO3)C[C@@H]1C` is -0.203% (inactive).

As to `C[C@@H]1CN([C@@H](C)CO)C(=O)c2cc(C3=CCCCC3)cnc2O[C@H]1CN(C)C(=O)NC1CCCC1`, the activation is -0.267% (inactive).

`C[C@H]1CN([C@@H](C)CO)C(=O)c2cc(NC(=O)CCCCCC(=O)Nc3ccccc3N)ccc2O[C@H]1CN(C)C(=O)Nc1ccc(F)cc1`: the activation is 0.137% (inactive). Turning to `C[C@H](CO)N1C[C@H](C)[C@H](CN(C)S(=O)(=O)c2cccs2)Oc2c(NC(=O)Nc3ccccc3)cccc2C1=O`, the activation is 1% (inactive). For the molecule `CN(CC(=O)Nc1cccc(F)c1)CC(=O)N1CCc2ccccc21`, the activation was 0.11% (inactive). In the case of `COc1ccc(NC(=O)c2cc(-c3cccs3)on2)c(OC)c1`, the activation is 1.59% (inactive). On to `COc1ccc(CN(C)C[C@H]2Oc3ccc(NC(=O)c4ccncc4)cc3C(=O)N([C@H](C)CO)C[C@@H]2C)cc1`, for which the activation is 0.118% (inactive). Regarding `C[C@H](CO)N1C[C@H](C)[C@@H](CN(C)S(=O)(=O)c2ccccc2)Oc2ccc(NC(=O)Nc3ccc(C(F)(F)F)cc3)cc2C1=O`, the activation was 0.863% (inactive).

Turning to `COc1ccc(NC(=O)Nc2ccc3c(c2)C(=O)N([C@H](C)CO)C[C@H](C)[C@@H](CN(C)Cc2ccncc2)O3)cc1`, the activation was 4.31% (inactive). Consider `CC(C)NC(=O)Nc1cccc2c1O[C@H](CN(C)Cc1ccc(Cl)c(Cl)c1)[C@H](C)CN([C@@H](C)CO)C2=O`, for which the activation is -0.02% (inactive). As to `Cc1noc(C)c1COc1ccccc1C(=O)N1CCN(S(=O)(=O)c2ccc(F)c(F)c2)CC1`, the activation was 0.069% (inactive). The same measure, in the same setting: for `C[C@@H]1CN([C@@H](C)CO)C(=O)Cc2cc(NC(=O)Nc3ccc(F)cc3)ccc2O[C@@H]1CN(C)Cc1ccncc1` the value was 10.4% (inactive); for `CCNC(=O)C[C@@H]1CC[C@H]2[C@@H](COc3ccc(NC(=O)Nc4ccc(F)cc4)cc3C(=O)N2C)O1`, -0.137% (inactive); for `C[C@H](CO)N1C[C@H](C)[C@H](CN(C)Cc2ccc(Cl)c(Cl)c2)Oc2ccc(NC(=O)Nc3ccc4c(c3)OCO4)cc2CC1=O`, -0.197% (inactive).

Turning to `O=C(COc1ccc(Cl)cc1)NCCCNC(=O)c1cnccn1`, the activation is 0.135% (inactive). Turning to `Cc1ccc(S(=O)(=O)N[C@@H](Cc2ccccc2)C(=O)N2CCC(C(=O)N[C@@H](CCC(N)=O)C(=O)O)CC2)cc1`, the activation is 0.009% (inactive). `C[C@@H]1CN([C@@H](C)CO)C(=O)c2cccc(NC(=O)CCCCCC(=O)Nc3ccccc3N)c2O[C@H]1CN(C)S(=O)(=O)c1cn(C)cn1`: the activation is 0.292% (inactive). Consider `C[C@@H]1CN([C@@H](C)CO)C(=O)Cc2cc(NC(=O)NC3CCCCC3)ccc2O[C@H]1CN(C)C(=O)Nc1ccc2c(c1)OCO2`, for which the activation is 16.7% (inactive).

Still in this assay, the particulars now being: HUVEC E-selectin immunostaining, at 21 µM (top of the series), percent of TNF-alpha response over vehicle.
For the molecule `C[C@H](CO)N1C[C@H](C)[C@H](CN(C)Cc2ccncc2)Oc2ccc(NS(C)(=O)=O)cc2CC1=O`, the activation was 0.077% (inactive).

For `COc1ccc(NC(=O)Nc2ccc3c(c2)C(=O)N([C@@H](C)CO)C[C@@H](C)[C@@H](CN(C)S(=O)(=O)c2ccc(F)cc2)O3)cc1`, the activation is 0.213% (inactive).

For the molecule `COc1ccc(S(=O)(=O)Nc2ccc3c(c2)C(=O)N([C@@H](C)CO)C[C@@H](C)[C@@H](CN(C)Cc2ccc(Cl)c(Cl)c2)O3)cc1`, the activation is -0.053% (inactive). Consider `C[C@@H]1CN([C@@H](C)CO)C(=O)c2cc(NC(=O)Nc3ccc4c(c3)OCO4)ccc2O[C@H]1CN(C)Cc1ccc(-c2ccccc2)cc1`, for which the activation was 2.77% (inactive). With `C[C@H]1CN([C@@H](C)CO)C(=O)c2cccc(NC(=O)Nc3ccc(F)cc3)c2O[C@@H]1CN(C)C(=O)NC1CCCCC1`, the activation was 0.342% (inactive).

On to `C[C@@H]1CN([C@@H](C)CO)C(=O)c2cc(NC(=O)CCN3CCOCC3)ccc2O[C@H]1CN(C)Cc1ccncc1`, for which the activation was -0.05% (inactive).
